Residues, ends and D or L forms follow the SMILES beside them. *: point of attachment. Cbz = O=C(OCc1ccccc1)*
Columns and labels:
Leishmania major = test: Antileishmanial activity against Leishmania major promastigotes incubated for 48 hrs by MTT assay; type: functional, organism-based
[1] = Selectivity index, ratio of IC50 for mouse RAW264.7 cells to IC50 for Leishmania major promastigotes; type: toxicity, cell-based; conditions: RAW264.7 cells versus Leishmania major promastigotes, read-out: Ratio IC50
[2] = Toxicity against mouse RAW264.7 cells by XTT assay; type: cell-based

Q: With COc1cccc2c1C(=O)C=C(C)C2=O as the compound, how does the IC50 (Leishmania major) read?
A: 3.3 µM

Q: What about the selectivity ratio [1] of the same compound?
A: 13.6

Q: What about the IC50 [2] of the same compound?
A: 45 µM

Q: With COc1c(C)cc(O)c2c(OC)cccc12 as the compound, how does the IC50 (Leishmania major) read?
A: > 100 µM

Q: And the IC50 [2]?
A: > 100 µM

Q: For COc1c(C)cc2cccc(OC)c2c1O, which IC50 (Leishmania major) is on record?
A: 45 µM

Q: And the selectivity ratio [1]?
A: > 2.22

Q: And the IC50 [2]?
A: > 100 µM

Q: With COc1cccc2cc(C)cc(O)c12 as the compound, how does the IC50 (Leishmania major) read?
A: 50 µM

Q: And the selectivity ratio [1]?
A: > 2

Q: And the IC50 [2]?
A: > 100 µM

Q: Which results are given for COc1ccc(OC)c2c(O)cc(C)cc12?
A: IC50 (Leishmania major): 38 µM; selectivity ratio [1]: > 2.63; IC50 [2]: > 100 µM

Q: With COc1cccc2c1C(=O)C(O)=C(C)C2=O as the compound, how does the IC50 (Leishmania major) read?
A: > 100 µM

Q: And the IC50 [2]?
A: > 100 µM

Q: For COc1ccc(OC)c2c1C(=O)C=C(C)C2=O, which IC50 [2] is on record?
A: > 100 µM

Q: Which IC50 (Leishmania major) does the source give for COc1cccc2cc(C=O)cc(O)c12 here?
A: > 100 µM

Q: What about the IC50 [2] of the same compound?
A: > 100 µM

Q: With COc1c(O)ccc2c1C(=O)C(C)=CC2=O as the compound, how does the IC50 (Leishmania major) read?
A: 93 µM

Q: What about the selectivity ratio [1] of the same compound?
A: 1.03

Q: And the IC50 [2]?
A: 96 µM

Q: With C[C@@H]1[C@H](O)[C@@H](C)/C=C/C=C/C=C/C=C/C=C/C=C/C=C/[C@H](O[C@@H]2O[C@H](C)[C@@H](O)[C@H](N)[C@@H]2O)C[C@@H]2O[C@](O)(C[C@@H](O)C[C@@H](O)[C@H](O)CC[C@@H](O)C[C@@H](O)CC(=O)O[C@H]1C)C[C@H](O)[C@H]2C(=O)O [AMPHOTERICIN B] as the compound, how does the IC50 (Leishmania major) read?
A: 0.035 µM

Q: What does the source list for COc1cc(C)cc2c1C(=O)C=C(C1=C(C)C(=O)c3ccc(O)c(OC)c3C1=O)C2=O [BURMANIN A]?
A: IC50 (Leishmania major): 0.053 µM; selectivity ratio [1]: 453; IC50 [2]: 24 µM

Q: Which IC50 (Leishmania major) does the source give for COc1cc(C)cc2c1C(=O)C=C(c1c(C)cc3ccc(O)c(OC)c3c1O)C2=O [BURMANIN B] here?
A: 0.18 µM

Q: What about the selectivity ratio [1] of the same compound?
A: 172

Q: What about the IC50 [2] of the same compound?
A: 31 µM

Q: For COc1cc(C)cc2c1C(=O)C=C(c1c(C)c(OC)c3ccc(O)c(OC)c3c1O)C2=O [BURMANIN C], which IC50 (Leishmania major) is on record?
A: 0.15 µM

Q: What about the selectivity ratio [1] of the same compound?
A: 147

Q: What about the IC50 [2] of the same compound?
A: 22 µM

Q: For CC(C)C[C@@H](C=O)NC(=O)[C@H](CC(C)C)NC(=O)[C@H](CC(C)C)NC(=O)OCc1ccccc1 [MG-132] (Cbz-Leu-Leu-Leu-aldehyde), which IC50 [2] is on record?
A: 0.63 µM

Reference: ChEMBL document CHEMBL2069272, “Leishmanicidal activities and cytotoxicities of bisnaphthoquinone analogues and naphthol derivatives from Burman Diospyros burmanica” (Bioorg Med Chem, 2012)
